Laboratory results taken from ChEMBL document CHEMBL4007492, “Discovery of an Acrylic Acid Based Tetrahydroisoquinoline as an Orally Bioavailable Selective Estrogen Receptor Degrader for ERα+ Breast Cancer” (J Med Chem, 2017).
Converted amounts (≈) assume the structure as drawn. Blank lines part the entries; values can stand above or below the molecule they belong to.

Columns and labels:
[1] = Stability of the compound in aqueous buffer assessed as compound racemization rate at 5 uM at pH 7.4 after 4 hrs by UPLC analysis; type: physicochemical; settings: pH 7.4, 4 h
[2] = test system: Plasma; test: Metabolic stability of the compound in cynomolgus monkey plasma assessed as compound racemization rate at 5 uM after 4 hrs by UPLC analysis; type: ADME, cell-free, Macaca fascicularis
[3] = test system: Plasma; test: Metabolic stability of the compound in human plasma assessed as compound racemization rate at 5 uM after 4 hrs by UPLC analysis; type: ADME, cell-free
[4] = test system: Plasma; test: Metabolic stability of the compound in Sprague Dawley rat plasma assessed as compound racemization rate at 5 uM after 4 hrs by UPLC analysis; type: ADME, cell-free
[5] = test system: Plasma; test: Metabolic stability of the compound in C57BL/6 mouse plasma assessed as compound racemization rate at 5 uM after 4 hrs by UPLC analysis; type: ADME, cell-free
[6] = Stability of the compound in methanol at room temperature assessed as compound racemization rate at 5 uM at pH 6.8 after 1 hr by UPLC analysis; type: physicochemical; settings: pH 6.8, 1 h
[7] = test system: Plasma; test: Metabolic stability of the compound in Beagle dog plasma assessed as compound racemization rate at 5 uM after 4 hrs by UPLC analysis; type: ADME, cell-free, Canis lupus familiaris
[8] = Stability of the compound in aqueous buffer assessed as compound racemization rate at 5 uM at pH 6.8 after 4 hrs by UPLC analysis; type: physicochemical; settings: pH 6.8, 4 h
[9] = physchem; settings: buffer, pH 6.8
[10] = pampa, 4 h, 5 µM
[11] = Elimination half life in Sprague-Dawley rat at 1 mg/kg, iv or 3 mg/kg, po administered as solution measured up to 7 hrs by LC/MS/MS analysis; type: ADME, organism-based; settings: in vivo, read-out: beta t1/2 (converted)
[12] = test system: Canis familiaris; test: Dose normalized AUC (0 to t) in Beagle dog at 0.3 mg/kg, iv administered as solution measured up to 7 hrs by LC/MS/MS analysis; type: ADME, organism-based, Canis lupus familiaris; settings: in vivo
[13] = test system: Rattus norvegicus; test: Dose normalized AUC (0 to t) in Sprague-Dawley rat at 1 mg/kg, iv administered as solution measured up to 7 hrs by LC/MS/MS analysis; type: ADME, organism-based; settings: in vivo
[14] = test system: Rattus norvegicus; test: Dose normalized Cmax in Sprague-Dawley rat at 3 mg/kg, po administered as solution measured up to 7 hrs by LC/MS/MS analysis; type: ADME, organism-based; settings: in vivo
[15] = test system: Rattus norvegicus; test: Dose normalized AUC (0 to t) in Sprague-Dawley rat at 100 mg/kg, po administered as suspension measured up to 7 hrs by LC/MS/MS analysis; type: ADME, organism-based; settings: in vivo
[16] = Oral bioavailability in Sprague-Dawley rat at 3 mg/kg administered as solution measured up to 7 hrs by LC/MS/MS analysis; type: ADME, organism-based; settings: in vivo
[17] = Tmax in Sprague-Dawley rat at 3 mg/kg, po administered as suspension measured up to 7 hrs by LC/MS/MS analysis; type: ADME, organism-based; settings: in vivo
[18] = test system: Canis familiaris; test: Clearance in Beagle dog at 10 mg/kg, po administered as solution measured up to 7 hrs by LC/MS/MS analysis relative to hepatic blood flow; type: ADME, organism-based, Canis lupus familiaris; settings: in vivo
[19] = Elimination half life in Beagle dog at 0.3 mg/kg, iv or 10 mg/kg, po administered as solution measured up to 7 hrs by LC/MS/MS analysis; type: ADME, organism-based, Canis lupus familiaris; settings: in vivo, read-out: beta t1/2 (converted)
[20] = Tmax in Beagle dog at 10 mg/kg, po administered as solution measured up to 7 hrs by LC/MS/MS analysis; type: ADME, organism-based, Canis lupus familiaris; settings: in vivo
[21] = test system: Canis familiaris; test: Dose normalized AUC (0 to t) in Beagle dog at 10 mg/kg, po administered as solution measured up to 7 hrs by LC/MS/MS analysis; type: ADME, organism-based, Canis lupus familiaris; settings: in vivo
[22] = organism: Mus musculus; settings: in vivo, po, 3 mg/kg
[23] = Tmax in Sprague-Dawley rat at 100 mg/kg, po administered as suspension measured up to 7 hrs by LC/MS/MS analysis; type: ADME, organism-based; settings: in vivo
[24] = test system: Canis familiaris; test: Dose normalized Cmax in Beagle dog at 10 mg/kg, po administered as solution measured up to 7 hrs by LC/MS/MS analysis; type: ADME, organism-based, Canis lupus familiaris; settings: in vivo
[25] = in vivo; settings: C57BL/6, mouse, po, 3 mg/kg
[26] = Tmax in Sprague-Dawley rat at 3 mg/kg, po administered as solution measured up to 7 hrs by LC/MS/MS analysis; type: ADME, organism-based; settings: in vivo
[27] = test system: Rattus norvegicus; test: Dose normalized Cmax in Sprague-Dawley rat at 3 mg/kg, po administered as suspension measured up to 7 hrs by LC/MS/MS analysis; type: ADME, organism-based; settings: in vivo
[28] = test system: Rattus norvegicus; test: Dose normalized Cmax in Sprague-Dawley rat at 30 mg/kg, po administered as suspension measured up to 7 hrs by LC/MS/MS analysis; type: ADME, organism-based; settings: in vivo
[29] = test system: Rattus norvegicus; test: Dose normalized AUC (0 to t) in Sprague-Dawley rat at 3 mg/kg, po administered as suspension measured up to 7 hrs by LC/MS/MS analysis; type: ADME, organism-based; settings: in vivo
[30] = organism: Mus musculus; settings: in vivo, iv, 1 mg/kg
[31] = test system: Rattus norvegicus; test: Clearance in Sprague-Dawley rat at 3 mg/kg, po administered as solution measured up to 7 hrs by LC/MS/MS analysis relative to hepatic blood flow; type: ADME, organism-based; settings: in vivo
[32] = Oral bioavailability in Beagle dog at 10 mg/kg administered as solution measured up to 7 hrs by LC/MS/MS analysis; type: ADME, organism-based, Canis lupus familiaris; settings: in vivo
[33] = Tmax in Sprague-Dawley rat at 30 mg/kg, po administered as suspension measured up to 7 hrs by LC/MS/MS analysis; type: ADME, organism-based; settings: in vivo
[34] = test system: Rattus norvegicus; test: Dose normalized Cmax in Sprague-Dawley rat at 100 mg/kg, po administered as suspension measured up to 7 hrs by LC/MS/MS analysis; type: ADME, organism-based; settings: in vivo
[35] = Clearance in Sprague-Dawley rat at 3 mg/kg, po administered as solution measured up to 7 hrs by LC/MS/MS analysis; type: ADME, organism-based; settings: in vivo
[36] = test system: Rattus norvegicus; test: Dose normalized AUC (0 to t) in Sprague-Dawley rat at 3 mg/kg, po administered as solution measured up to 7 hrs by LC/MS/MS analysis; type: ADME, organism-based; settings: in vivo
[37] = in vivo; settings: C57BL/6, mouse
[38] = Clearance in Beagle dog at 10 mg/kg, po administered as solution measured up to 7 hrs by LC/MS/MS analysis; type: ADME, organism-based, Canis lupus familiaris; settings: in vivo
[39] = organism: Mus musculus; settings: in vivo, po, 3 mg/kg, 7 h
[40] = test system: Rattus norvegicus; test: Dose normalized AUC (0 to t) in Sprague-Dawley rat at 30 mg/kg, po administered as suspension measured up to 7 hrs by LC/MS/MS analysis; type: ADME, organism-based; settings: in vivo
[41] = in vivo; settings: C57BL/6, mouse, iv, 1 mg/kg

SMILES: CC(C)c1ccc(N2CCc3cc(O)ccc3[C@]2(C)c2ccc(/C=C/C(=O)O)cc2)cc1
Drug metabolism [1]: Metabolite_Detected | Drug metabolism [2]: Metabolite_Detected | Drug metabolism [3]: Metabolite_Detected | Drug metabolism [4]: Metabolite_Detected | Drug metabolism [5]: Metabolite_Detected | Drug metabolism [6]: Metabolite_Detected | Drug metabolism [7]: Metabolite_Detected | Drug metabolism [8]: Metabolite_Detected

SMILES: CC1(c2ccc(/C=C/C(=O)O)cc2)c2ccc(O)cc2CCN1c1cccc(F)c1 (stereo not drawn)
solubility at 16 h [9]: 561 µM (≈ 226 µg/mL) | log(permeability) [10]: -4.3

SMILES: CC1(c2ccc(/C=C/C(=O)NCC(F)F)cc2)c2ccc(O)cc2CCN1c1ccc(F)cc1 (stereo not drawn)
solubility at 16 h [9]: < 5 µM | log(permeability) [10]: -4.2

Results, then the molecule that gave them:

half-life [11]: 0.8 h | AUCt/dose [12]: 14347 nM·h/mg | AUCt/dose [13]: 2627 nM·h/mg | Cmax/dose [14]: 1199 nM | AUCt/dose [15]: 918 nM·h/mg | solubility at 16 h [9]: 94 µM (≈ 40.2 µg/mL) | bioavailability [16]: 60% | Tmax [17]: 0.3 h | CL [18]: 7% | half-life [19]: 5 h | Tmax [20]: 1.2 h | AUCt/dose [21]: 7994 nM·h/mg | AUC/dose [22]: 4533 nM·h/mg | Tmax [23]: 1.5 h | Cmax/dose [24]: 1311 nM | bioavailability at 7 h [25]: 78% | Tmax [26]: 0.3 h | Cmax/dose [27]: 602 nM | Cmax/dose [28]: 346 nM | AUCt/dose [29]: 955 nM·h/mg | AUC/dose [30]: 5808 nM·h/mg | CL [31]: 27% | bioavailability [32]: 56% | Tmax [33]: 2 h | Cmax/dose [34]: 202 nM | CL/F [35]: 14.9 mL/min/kg | AUCt/dose [36]: 1586 nM·h/mg | half-life at 7 h [37]: 1.1 h | CL/F [38]: 2.3 mL/min/kg | Cmax/dose [39]: 2621 nM | AUCt/dose [40]: 1125 nM·h/mg | log(permeability) [10]: -4.1 | clearance at 7 h [41]: 7 mL/min/kg
SMILES: CC(C)c1ccc(N2CCc3cc(O)ccc3C2(C)c2ccc(/C=C/C(=O)O)cc2)cc1 (stereo not drawn)

Drug metabolism [1]: Metabolite_Detected | Drug metabolism [2]: Metabolite_Detected | Drug metabolism [3]: Metabolite_Detected | Drug metabolism [4]: Metabolite_Detected | Drug metabolism [5]: Metabolite_Detected | Drug metabolism [6]: Metabolite_Detected | Drug metabolism [7]: Metabolite_Detected | Drug metabolism [8]: Metabolite_Detected
SMILES: CC(C)c1ccc(N2CCc3cc(O)ccc3[C@@]2(C)c2ccc(/C=C/C(=O)O)cc2)cc1
